Values quoted from earlier work as cited in patent US20150031737A1, “STABILIZED CONTROLLED-RELEASE PHARMACEUTICAL COMPOSITION COMPRISING GLICLAZIDE” (RANBAXY LABORATORIES LIMITED, priority 2012, published 2015).

## Cc1ccc(S(=O)(=O)NC(=O)NN2CC3CCCC3C2)cc1 (stereo not shown) [Gliclazide]
  pKa: about 5.8
